Results reported in patent US20260226068A1, “IMIDAZOTRIAZINE IL-17A MODULATORS AND USES THEREOF” (DICE ALPHA, INC., priority 2023, published 2026).

Assays:
[1] = target: T1, IL-17A/A (Homo sapiens, UniProt Q16552); assay: IL-17A/A HEK-Blue cell assay (SEAP reporter); assay type: cell-based; conditions: HEK-Blue IL-17A reporter cells, IL17A/A 5 ng/mL, 20 hours, SEAP read at A630; read-out: HEK-Blue IL17AA (IC50 for IL-17A/A inhibition)
T1 construct: purchased Genscript Z03228
T1 sequence (Q16552 24-155): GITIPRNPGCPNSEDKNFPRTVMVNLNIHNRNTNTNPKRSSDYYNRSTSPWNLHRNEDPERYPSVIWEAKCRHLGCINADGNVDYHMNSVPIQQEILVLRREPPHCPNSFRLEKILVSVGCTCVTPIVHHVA

[2] = target: T2, IL-17A/F (Homo sapiens, UniProt Q16552+Q96PD4); assay: IL-17A/F HEK-Blue cell assay (SEAP reporter); assay type: cell-based; conditions: HEK-Blue IL-17A reporter cells, IL17A/F 5 ng/mL, 20 hours, SEAP read at A630; read-out: HEK-Blue IL17AF (IC50 for IL-17A/F inhibition)
T2 construct: purchased R&D Systems
T2 sequence (Q16552 24-155): T1 sequence (Q16552 24-155)
T2 sequence (Q96PD4 31-163): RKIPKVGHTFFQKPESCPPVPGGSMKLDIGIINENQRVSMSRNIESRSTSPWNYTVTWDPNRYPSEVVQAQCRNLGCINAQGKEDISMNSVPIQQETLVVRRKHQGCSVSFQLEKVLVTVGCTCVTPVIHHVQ

Which results are given for `Cn1nccc1C(=O)N[C@H](c1cn2nc(CC3C[C@@H](C(F)(F)F)CNC3=O)cnc2n1)C1CCC(F)(F)CC1` (stereo partly drawn) [Compound 3, N—((S)-(4,4-difluorocyclohexyl)(2-(((5R)-2-oxo-5-(trifluoromethyl)piperidin-3-yl)methyl)imidazo[1,2-b][1,2,4]triazin-6-yl)methyl)-1-methyl-1H-pyrazole-5-carboxamide]?
IC50 [1]: 100 to 1000 nM; IC50 [2]: > 1000 nM

For `CC(C)n1nccc1C(=O)N[C@H](c1cn2nc(CC3C[C@@H](C(F)(F)F)CNC3=O)cnc2n1)C1CCC(F)(F)CC1` (stereo partly drawn) [Compound 6, N—((S)-(4,4-difluorocyclohexyl)(2-(((5R)-2-oxo-5-(trifluoromethyl)piperidin-3-yl)methyl)imidazo[1,2-b][1,2,4]triazin-6-yl)methyl)-1-isopropyl-1H-pyrazole-5-carboxamide], which IC50 [1] is on record?
Its IC50 is less than 100 nM.

And the IC50 [2]?
Its IC50 is greater than 1000 nM.

Which IC50 [1] does the source give for `O=C(N[C@H](c1cn2nc(CC3C[C@@H](C(F)(F)F)CNC3=O)cnc2n1)C1CCC(F)(F)CC1)c1conc1CCF` (stereo partly drawn) [Compound 7, N—((S)-(4,4-difluorocyclohexyl)(2-(((5R)-2-oxo-5-(trifluoromethyl)piperidin-3-yl)methyl)imidazo[1,2-b][1,2,4]triazin-6-yl)methyl)-3-(2-fluoroethyl)isoxazole-4-carboxamide] here?
The IC50 was 100 to 1000 nM.

What about the IC50 [2] of the same compound?
Its IC50 is greater than 1000 nM.

Which IC50 [1] does the source give for `CC(C)c1nocc1C(=O)N[C@H](c1cn2nc(CC3C[C@@H](C(F)(F)F)CNC3=O)cnc2n1)C1CCC(F)(F)CC1` (stereo partly drawn) [Compound 8, N—((S)-(4,4-difluorocyclohexyl)(2-(((5R)-2-oxo-5-(trifluoromethyl)piperidin-3-yl)methyl)imidazo[1,2-b][1,2,4]triazin-6-yl)methyl)-3-isopropylisoxazole-4-carboxamide] here?
The IC50 was 100 to 1000 nM.

What about the IC50 [2] of the same compound?
The IC50 was greater than 1000 nM.

Which IC50 [1] does the source give for `O=C(N[C@H](c1cn2nc(CC3C[C@@H](C(F)(F)F)CNC3=O)cnc2n1)C1CCC(F)(F)CC1)c1conc1C1CC1` (stereo partly drawn) [Compound 9, 3-cyclopropyl-N—((S)-(4,4-difluorocyclohexyl)(2-(((5R)-2-oxo-5-(trifluoromethyl)piperidin-3-yl)methyl)imidazo[1,2-b][1,2,4]triazin-6-yl)methyl)isoxazole-4-carboxamide] here?
Its IC50 is less than 100 nM.

And the IC50 [2]?
Its IC50 is greater than 1000 nM.

With `O=C(N[C@H](c1cn2nc(CC3C[C@@H](C(F)(F)F)CNC3=O)cnc2n1)C1CCC(F)(F)CC1)c1conc1C(F)(F)F` (stereo partly drawn) [Compound 10, N—((S)-(4,4-difluorocyclohexyl)(2-(((5R)-2-oxo-5-(trifluoromethyl)piperidin-3-yl)methyl)imidazo[1,2-b][1,2,4]triazin-6-yl)methyl)-3-(trifluoromethyl)isoxazole-4-carboxamide] as the compound, how does the IC50 [1] read?
Its IC50 is 100 to 1000 nM.

What about the IC50 [2] of the same compound?
The IC50 was greater than 1000 nM.

For `CCc1nonc1C(=O)N[C@H](c1cn2nc(CC3C[C@@H](C(F)(F)F)CNC3=O)cnc2n1)C1CCC(F)(F)CC1` (stereo partly drawn) [Compound 11, N—((S)-(4,4-difluorocyclohexyl)(2-(((5R)-2-oxo-5-(trifluoromethyl)piperidin-3-yl)methyl)imidazo[1,2-b][1,2,4]triazin-6-yl)methyl)-4-ethyl-1,2,5-oxadiazole-3-carboxamide], which IC50 [1] is on record?
Its IC50 is 100 to 1000 nM.

And the IC50 [2]?
Its IC50 is greater than 1000 nM.

Which results are given for `CC(C)c1nonc1C(=O)N[C@H](c1cn2nc(CC3C[C@@H](C(F)(F)F)CNC3=O)cnc2n1)C1CCC(F)(F)CC1` (stereo partly drawn) [Compound 12]?
IC50 [1]: < 100 nM; IC50 [2]: > 1000 nM

How did the IC50 [1] turn out when `O=C(N[C@H](c1cn2nc(CC3C[C@@H](C(F)(F)F)CNC3=O)cnc2n1)C1CCC(F)(F)CC1)c1nonc1C1CC1` (stereo partly drawn) [Compound 13, 4-cyclopropyl-N—((S)-(4,4-difluorocyclohexyl)(2-(((5R)-2-oxo-5-(trifluoromethyl)piperidin-3-yl)methyl)imidazo[1,2-b][1,2,4]triazin-6-yl)methyl)-1,2,5-oxadiazole-3-carboxamide] was run?
The IC50 was less than 100 nM.

And the IC50 [2]?
Its IC50 is greater than 1000 nM.
